ChEMBL document CHEMBL3856279, “The discovery of new cytotoxic pyrazolopyridine derivatives” (Bioorg Med Chem Lett, 2016)

What was measured:
[1] = Antiproliferative activity against human MIAPaCa2 cells after 48 hrs by MTS assay; type: functional, cell-based; settings: MIA PaCa-2, 48 h
[2] = Antiproliferative activity against human SKOV3 cells after 48 hrs by MTS assay; type: functional, cell-based; settings: SK-OV-3, 48 h
[3] = Antiproliferative activity against human WI38 cells after 48 hrs by MTS assay; type: cell-based; settings: WI-38, 48 h
[4] = Cell cycle arrest in human PC3 cells assessed as accumulation at G0/G1 phase at antiproliferative IC50 after 48 hrs by propidium iodide staining based FACS analysis (reference value: 38.3 +/- 0.7%); type: functional; settings: PC-3
[5] = Antiproliferative activity against human A2058 cells after 48 hrs by MTS assay; type: functional, cell-based; settings: A2058, 48 h
[6] = Induction of apoptosis in human PC3 cells assessed as appearance of apoptotic nuclei at antiproliferative IC50 after 48 hrs by propidium iodide staining based FACS analysis (reference value: 0.7 +/- 0.1%); type: functional, PC-3
[7] = Antiproliferative activity against human DU145 cells after 48 hrs by MTS assay; type: functional, cell-based; settings: DU-145, 48 h
[8] = Cell cycle arrest in human PC3 cells assessed as accumulation at G2/M phase at antiproliferative IC50 after 48 hrs by propidium iodide staining based FACS analysis (reference value: 24 +/- 2.9%); type: functional; settings: PC-3
[9] = Cell cycle arrest in human PC3 cells assessed as accumulation at S phase at antiproliferative IC50 after 48 hrs by propidium iodide staining based FACS analysis (reference value: 37.7 +/- 2.2%); type: functional; settings: PC-3
[10] = Antiproliferative activity against human PC3 cells after 48 hrs by MTS assay; type: functional, cell-based; settings: PC-3, 48 h

SMILES | IC50 [1] [µM] | IC50 [2] [µM] | IC50 [3] [µM] | Activity [4] [%] | IC50 [5] [nM] | Activity [6] [%] | IC50 [7] [nM] | Activity [8] [%] | Activity [9] [%] | IC50 [10] [µM]
COc1cc(Nc2nccc3cn[nH]c23)cc(OC)c1OC | > 50 | > 50 | > 50 | – | – | – | – | – | – | –
Clc1cc2cn[nH]c2c(Nc2ccccc2)n1 | 36.2 | 34.2 | > 50 | – | – | – | – | – | – | –
COc1cc(Nc2nccc3c(C(C)C)n[nH]c23)cc(OC)c1OC | 10 | 22.9 | > 50 | – | – | – | – | – | – | –
c1ccc(Nc2nccc3cn[nH]c23)cc1 | > 50 | > 50 | > 50 | – | – | – | – | – | – | –
CC(C)c1n[nH]c2c(Nc3ccccc3)nccc12 | 41.2 | 48.3 | > 50 | – | – | – | – | – | – | –
Clc1cc2c(-c3ccccc3)n[nH]c2c(Nc2ccccc2)n1 | 4.3 | 2.5 | 23.4 | – | – | – | – | – | – | –
COc1cc(Nc2nccc3c(-c4ccccc4)n[nH]c23)cc(OC)c1OC | 3.8 | 0.73 | 14.9 | 80.8 | 890 | 25.8 | 920 | 19.2 | 0 | 0.38
COc1cc(Nc2nc(Cl)cc3cn[nH]c23)cc(OC)c1OC | 16.2 | 13.1 | > 50 | – | – | – | – | – | – | –
CC(C)c1n[nH]c2c(Nc3ccccc3)nc(Cl)cc12 | 21.5 | > 50 | 38.7 | – | – | – | – | – | – | –
COc1cc(Nc2nc(Cl)cc3c(-c4ccccc4)n[nH]c23)cc(OC)c1OC | 6.7 | 5.9 | 21.9 | 46.2 | – | 0.9 | – | 23.5 | 30.3 | 15
COc1cc(Nc2nc(Cl)cc3c(C(C)C)n[nH]c23)cc(OC)c1OC | 6.1 | 5.6 | 43.8 | – | – | – | – | – | – | –
c1ccc(Nc2nccc3c(-c4ccccc4)n[nH]c23)cc1 | 9 | 22.1 | 24.7 | – | – | – | – | – | – | –
